Counter-ions that a name gives are not always drawn.

The target of test [1] is T1, human H4 receptor (Homo sapiens, UniProt Q9H3N8). Put plainly: biochemical.
In test [2] the target is T1, human H4 receptor. Put plainly: biochemical. The source holds these as a separate data set.
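Throughout, for IC50: membranes from SH-SY5Y cells with stable human H4 receptor expression, incubated with GDP 10 µM, radioactivity retained on filters counted by liquid scintillation.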
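Throughout, for Ki: radioligand displacement of a [3H]-labelled ligand from membranes of CHO cells stably expressing human H4 receptor, bound radioactivity counted on filters by liquid scintillation.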

T1 sequence (Q9H3N8 whole entry): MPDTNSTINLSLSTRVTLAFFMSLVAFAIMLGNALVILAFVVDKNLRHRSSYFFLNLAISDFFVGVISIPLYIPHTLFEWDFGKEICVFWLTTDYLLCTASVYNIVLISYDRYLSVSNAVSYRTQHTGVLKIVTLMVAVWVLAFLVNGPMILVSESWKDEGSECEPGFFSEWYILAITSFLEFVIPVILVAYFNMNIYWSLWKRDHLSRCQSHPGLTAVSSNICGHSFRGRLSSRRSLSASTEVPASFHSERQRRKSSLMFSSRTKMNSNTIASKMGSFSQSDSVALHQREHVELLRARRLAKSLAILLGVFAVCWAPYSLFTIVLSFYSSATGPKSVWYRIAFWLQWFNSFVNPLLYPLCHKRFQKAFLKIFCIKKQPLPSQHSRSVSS

Turning to `Cc1ccc(-c2cn3c(n2)C(OC2CCN(C)CC2)c2ccccc2CC3)cc1` (stereo not drawn) [Example 5, 4-(1-methylpiperidin-4-yloxy)-2-p-tolyl-9,10-dihydro-4H-3,10a-diaza-benzo[f]azulene], at human H4 receptor [1], the IC50 was below 300 nM. At human H4 receptor [2], this compound displayed a Ki below 30 nM.

For `CN1CCC(OC2c3ccccc3CCn3cc(-c4ccc(C#N)cc4)nc32)CC1` (stereo not drawn) [Example 37, 4-[4-(1-methylpiperidin-4-yloxy)-9,10-dihydro-4H-3,10a-diaza-benzo[f]azulen-2-yl]-benzonitrile], the IC50 at human H4 receptor [1] is below 30 nM. Further, the Ki at human H4 receptor [2] is below 30 nM.

As to `CN1CCC(OC2c3ccccc3CCn3cc(-c4ccc(N(C)C(=O)OC(C)(C)C)cc4)nc32)CC1` (stereo not drawn) [Example 97, methyl-{4-[4-(1-methylpiperidin-4-yloxy)-9,10-dihydro-4H-3,10a-diaza-benzo[f]azulen-2-yl]-phenyl}-carbamic acid tert-butyl ester oxalate], the IC50 at human H4 receptor [1] was below 30 nM. The inhibition constant (Ki) at human H4 receptor [2] is below 30 nM.

The compound `Cc1c(-c2ccc(C=CS(C)(=O)=O)cc2)nc2n1CCc1ccccc1C2OC1CCN(C)CC1` (stereo not drawn) [Example 158, 2-[4-(2-methanesulfonyl-vinyl)-phenyl]-1-methyl-4-(1-methylpiperidin-4-yloxy)-9,10-dihydro-4H-3,10a-diaza-benzo[f]azulene] yielded an IC50 at human H4 receptor [1] below 30 nM. Besides, on human H4 receptor [2], the Ki is below 30 nM.

Take `Cc1c(C2=CCCCC2)nc2n1CCc1ccccc1C2OC1CCN(C)CC1` (stereo not drawn) [Example 226, 2-cyclohex-1-enyl-1-methyl-4-(1-methylpiperidin-4-yloxy)-9,10-dihydro-4H-3,10a-diaza-benzo[f]azulene]: the IC50 at human H4 receptor [1] is below 30 nM. For the same compound, the Ki at human H4 receptor [2] is below 30 nM.

Turning to `CCCCCc1ccc(-c2cn3c(n2)C(OC2CCN(C)CC2)c2ccccc2CC3)cc1` (stereo not drawn) [Example 42, 4-(1-methylpiperidin-4-yloxy)-2-(4-pentylphenyl)-9,10-dihydro-4H-3,10a-diaza-benzo[f]azulene], on human H4 receptor [1], the IC50 is below 30 nM. Besides, at human H4 receptor [2], the Ki was below 30 nM.

At human H4 receptor [1], `CCCCc1ccc(-c2cn3c(n2)C(OC2CCN(C)CC2)c2ccccc2CC3)cc1` (stereo not drawn) [Example 41, 2-(4-butylphenyl)-4-(1-methylpiperidin-4-yloxy)-9,10-dihydro-4H-3,10a-diaza-benzo[f]azulene oxalate] gave an IC50 below 300 nM. At human H4 receptor [2], this compound registered a Ki below 30 nM.

On to `CN1CCC(OC2c3ccccc3CCn3cc(CCCCCc4ccccc4)nc32)CC1` (stereo not drawn) [Example 90, 4-(1-methylpiperidin-4-yloxy)-2-(5-phenylpentyl)-9,10-dihydro-4H-3,10a-diaza-benzo[f]azulene oxalate], for which the IC50 against human H4 receptor [1] was below 30 nM. Also, the Ki on human H4 receptor [2] was below 30 nM.

In turn, `CN1CCC(OC2c3ccccc3CCn3cc(-c4cccc(F)c4)nc32)CC1` (stereo not drawn) [Example 68, 2-(3-fluorophenyl)-4-(1-methylpiperidin-4-yloxy)-9,10-dihydro-4H-3,10a-diaza-benzo[f]azulene oxalate] registered an IC50 at human H4 receptor [1] below 300 nM. This compound registered a Ki on human H4 receptor [2] below 30 nM.

Consider `CN1CCC(OC2c3ccccc3CCn3cc(-c4ccc(S(=O)(=O)N(C)C)cc4)nc32)CC1` (stereo not drawn) [Example 29, N,N-dimethyl-4-[4-(1-methylpiperidin-4-yloxy)-9,10-dihydro-4H-3,10a-diaza-benzo[f]azulen-2-yl]-benzenesulfonamide], for which the IC50 on human H4 receptor [1] is below 300 nM. On human H4 receptor [2], this compound returned an inhibition constant (Ki) below 300 nM.

As for `CN1CCC(OC2c3ccccc3CCn3cc(C=CCOc4ccccc4)nc32)CC1` (stereo not drawn) [Example 121, 4-(1-methylpiperidin-4-yloxy)-2-(3-phenoxypropenyl)-9,10-dihydro-4H-3,10a-diaza-benzo[f]azulene], at human H4 receptor [1], the IC50 was below 30 nM. Moreover, on human H4 receptor [2], the inhibition constant Ki is below 30 nM.

At human H4 receptor [1], `Cc1c(-c2ccc(SCCN)cc2)nc2n1CCc1ccccc1C2OC1CCN(C)CC1` (stereo not drawn) [Example 161, 2-{4-[1-methyl-4-(1-methylpiperidin-4-yloxy)-9,10-dihydro-4H-3,10a-diaza-benzo[f]azulen-2-yl]-phenylsulfanyl}-ethylamine oxalate] came in with an IC50 below 30 nM. This compound returned a Ki at human H4 receptor [2] below 30 nM.

On to `CN1CCC(OC2c3ccccc3CCn3cc(SC4CCCC4)nc32)CC1` (stereo not drawn) [Example 86, 2-cyclopentylsulfanyl-4-(1-methylpiperidin-4-yloxy)-9,10-dihydro-4H-3,10a-diaza-benzo[f]azulene oxalate], for which the IC50 at human H4 receptor [1] is below 30 nM. On human H4 receptor [2], this compound came in with a Ki below 300 nM.

On to `CN1CCC(OC2c3ccccc3CCn3cc(-c4ccc5c(c4)OCO5)nc32)CC1` (stereo not drawn) [Example 50, 2-benzo[1,3]dioxol-5-yl-4-(1-methylpiperidin-4-yloxy)-9,10-dihydro-4H-3,10a-diaza-benzo[f]azulene], for which the IC50 on human H4 receptor [1] was below 1000 nM. On human H4 receptor [2], the inhibition constant Ki was below 30 nM.

Compound `Cc1ccc(-c2cn3c(n2)C(OC2CCN(C)CC2)c2ccccc2CC3)c(F)c1` (stereo not drawn) [Example 82, 2-(2-fluoro-4-methylphenyl)-4-(1-methylpiperidin-4-yloxy)-9,10-dihydro-4H-3,10a-diaza-benzo[f]azulene] showed an IC50 against human H4 receptor [1] below 30 nM. Moreover, on human H4 receptor [2], the Ki is below 300 nM.

Regarding `CN1CCC(OC2c3ccccc3CCn3cc(-c4ccc(F)cc4)nc32)CC1` (stereo not drawn) [Example 56, 2-(4-fluorophenyl)-4-(1-methylpiperidin-4-yloxy)-9,10-dihydro-4H-3,10a-diaza-benzo[f]azulene], the IC50 against human H4 receptor [1] was below 30 nM. Moreover, the Ki on human H4 receptor [2] was below 30 nM.

Compound `CN1CCC(OC2c3ccccc3CCn3cc(SCc4ccccc4)nc32)CC1` (stereo not drawn) [Example 67, 2-benzylsulfanyl-4-(1-methylpiperidin-4-yloxy)-9,10-dihydro-4H-3,10a-diaza-benzo[f]azulene oxalate] had an IC50 against human H4 receptor [1] below 300 nM. In addition, on human H4 receptor [2], the inhibition constant Ki was below 300 nM.

For the compound `CCCCCCc1ccc(-c2cn3c(n2)C(OC2CCN(C)CC2)c2ccccc2CC3)cc1` (stereo not drawn) [Example 43, 2-(4-hexylphenyl)-4-(1-methylpiperidin-4-yloxy)-9,10-dihydro-4H-3,10a-diaza-benzo[f]azulene], the IC50 against human H4 receptor [1] was below 300 nM. On human H4 receptor [2], this compound registered a Ki below 300 nM.

As for `CN1CCC(OC2c3ccccc3CCn3cc(-c4ccc(C(=O)C(F)(F)F)cc4)nc32)CC1` (stereo not drawn) [Example 31, 2,2,2-trifluoro-1-{4-[4-(1-methylpiperidin-4-yloxy)-9,10-dihydro-4H-3,10a-diaza-benzo[f]azulen-2-yl]-phenyl}-ethanone oxalate], the 50% inhibitory concentration (IC50) at human H4 receptor [1] was below 30 nM. The compound further showed a Ki at human H4 receptor [2] below 300 nM.

In turn, `Cc1c(C=CC(C)(C)C)nc2n1CCc1ccccc1C2OC1CCN(C)CC1` (stereo not drawn) [Example 225, 2-(3,3-dimethyl-but-1-enyl)-1-methyl-4-(1-methylpiperidin-4-yloxy)-9,10-dihydro-4H-3,10a-diaza-benzo[f]azulene] came in with an IC50 at human H4 receptor [1] below 30 nM. The compound also had a Ki at human H4 receptor [2] below 30 nM.

Compound `Cc1c(-c2ccccc2)nc2n1CCc1ccccc1C2OC1CCN(C)CC1` (single isomer, unassigned) [Example 135B, 1-methyl-4-(1-methyl-piperidin-4-yloxy)-2-phenyl-9,10-dihydro-4H-3,10a-diaza-benzo[f]azulene] returned an IC50 at human H4 receptor [1] below 30 nM. This compound also had an inhibition constant Ki at human H4 receptor [2] below 30 nM.

For the compound `CN1CCC(OC2c3ccccc3CCn3cc(-c4ccc(NC(=O)OC(C)(C)C)cc4)nc32)CC1` (stereo not drawn) [Example 49, {4-[4-(1-methylpiperidin-4-yloxy)-9,10-dihydro-4H-3,10a-diaza-benzo[f]azulen-2-yl]-phenyl}-carbamic acid tert-butyl ester], the IC50 on human H4 receptor [1] is below 300 nM. Further, on human H4 receptor [2], the Ki was below 30 nM.

At human H4 receptor [1], `Cc1c(-c2ccc(NC(=O)OC(C)(C)C)cc2)nc2n1CCc1ccccc1C2OC1CCN(C)CC1` (stereo not drawn) [Example 130, {4-[1-methyl-4-(1-methylpiperidin-4-yloxy)-9,10-dihydro-4H-3,10a-diaza-benzo[f]azulen-2-yl]-phenyl}-carbamic acid tert-butyl ester] registered an IC50 below 30 nM. On human H4 receptor [2], this compound had a Ki below 30 nM.

At human H4 receptor [1], `CN1CCC(OC2c3ccccc3CCn3cc(CCCC4CCCC4)nc32)CC1` (stereo not drawn) [Example 105, 2-(3-cyclopentylpropyl)-4-(1-methylpiperidin-4-yloxy)-9,10-dihydro-4H-3,10a-diaza-benzo[f]azulene] came in with an IC50 below 30 nM. This compound also showed a Ki at human H4 receptor [2] below 30 nM.

At human H4 receptor [1], `CN1CCC(OC2c3ccccc3CCn3cc(-c4ccc(C(=O)OC(C)(C)C)cc4)nc32)CC1` (stereo not drawn) [Example 36, 4-[4-(1-methylpiperidin-4-yloxy)-9,10-dihydro-4H-3,10a-diaza-benzo[f]azulen-2-yl]-benzoic acid tert-butyl ester] came in with a concentration for half-maximal inhibition (IC50) below 30 nM. This compound also displayed an inhibitory constant (Ki) at human H4 receptor [2] below 30 nM.

On to `CN1CCC(OC2c3ccccc3CCn3cc(CCc4ccccc4)nc32)CC1` (stereo not drawn) [Example 38, 4-(1-methylpiperidin-4-yloxy)-2-phenethyl-9,10-dihydro-4H-3,10a-diaza-benzo[f]azulene oxalate], for which the IC50 on human H4 receptor [1] was below 30 nM. This compound also registered a Ki at human H4 receptor [2] below 300 nM.

Turning to `CN1CCC(OC2c3ccccc3CCn3cc(CCC(C)(C)C)nc32)CC1` (stereo not drawn) [Example 94, 2-(3,3-dimethylbutyl)-4-(1-methylpiperidin-4-yloxy)-9,10-dihydro-4H-3,10a-diaza-benzo[f]azulene], the IC50 against human H4 receptor [1] is below 30 nM. This compound also had an inhibition constant Ki at human H4 receptor [2] below 30 nM.

As to `CN1CCC(OC2c3ccccc3CCn3cc(CCCc4ccccc4)nc32)CC1` (stereo not drawn) [Example 87, 4-(1-methylpiperidin-4-yloxy)-2-(3-phenylpropyl)-9,10-dihydro-4H-3,10a-diaza-benzo[f]azulene oxalate], the IC50 on human H4 receptor [1] is below 30 nM. Besides, the inhibitory constant (Ki) on human H4 receptor [2] was below 30 nM.

The compound `Cc1c(-c2ccc(SCc3ccco3)cc2)nc2n1CCc1ccccc1C2OC1CCN(C)CC1` (stereo not drawn) [Example 167, 2-[4-(furan-2-ylmethylsulfanyl)-phenyl]-1-methyl-4-(1-methylpiperidin-4-yloxy)-9,10-dihydro-4H-3,10a-diaza-benzo[f]azulene oxalate] had an IC50 at human H4 receptor [1] below 30 nM. This compound also returned a Ki on human H4 receptor [2] below 30 nM.

Take `C=C(C)Cc1nc2n(c1C#N)CCc1ccccc1C2OC1CCN(C)CC1` (stereo not drawn) [Example 259, 2-(2-methylallyl)-4-(1-methylpiperidin-4-yloxy)-9,10-dihydro-4H-3,10a-diaza-benzo[f]azulene-1-carbonitrile]: the IC50 against human H4 receptor [1] was below 300 nM. This compound also had a Ki on human H4 receptor [2] below 300 nM.

By IC50 is commonly meant the concentration that inhibits the measured activity by half. A high value points to lower potency. One may read the Ki as a measure of affinity in units of concentration, obtained from inhibition or displacement. Higher therefore signals a looser hold on the target.
